Test results: patent US6452005B1, “JAK-3 inhibitors for treating allergic disorders” (Parker Hughes Institute, priority 1999, dated 2002)
Like-named read-outs stand apart in the source and are kept apart here.

Legend:
recombinant JAK2 = recombinant JAK2 (Homo sapiens, UniProt O60674); assay: Immune complex kinase assay, recombinant JAK2; conditions: FIG. 6C & D
Method: In FIGS. 6A-6D, JAK3, JAK1, and JAK2 were immunoprecipitated from Sf21 insect ovary cells transfected with the appropriate baculovirus expression vectors and treated with WHI-P131, then subjected to in vitro kinase assays as described in the Examples below. The enzymatic activity of JAKs was determined by measuring autophosphorylation in a 10 minute kinase assay, as described in the Examples below. The kinase activity (KA) levels were expressed as percentage of baseline activity (%CON).
Immune Complex Kinase Assays. Sf21 (IPLB-SF21-AE) cells (Vassilev et. al., 1999, J. Biol. Chem,. 274:1646-1656) derived from the ovarian tissue of the fall armyworm Spodotera frugiperda, were obtained from Invitrogen and maintained at 26-28° C. in Grace's insect cell medium supplemented with 10% FBS and 1.0% antibiotic/antimycotic (GIBCO-BRL). Stock cells were maintained in suspension at 0.2-1.6×10^6/ml in 600 ml total culture volume in 1 L Bellco spinner flasks at 60-90 rpm. Cell viability was maintained at 95-100% as determined by trypan blue dye exclusion.
Sf21 cells were infected with a baculovirus expression vector for BTK, SYK, JAK1, JAK2, or JAK3, as previously reported (Mahajan et. al., 1999, J. Biol. Chem., 274:1646-1656). […]

recombinant JAK1 = biological target: T1, recombinant JAK1 (Homo sapiens, UniProt P23458); assay: Immune complex kinase assay, recombinant JAK1; assay type: biochemical; conditions: FIG. 6C & D
T1 construct: made in house; host or cells: Sf21 insect cells, baculovirus
Excerpt: (§1) Immune Complex Kinase Assays.

recombinant murine JAK3 = biological target: T2, recombinant murine JAK3 (Mus musculus, UniProt Q62137); assay: Immune complex kinase assay, recombinant JAK3 from baculovirus expression system; assay type: biochemical; conditions: recombinant murine JAK3, FIG. 6B
T2 construct: made in house; host or cells: Sf21 insect cells, baculovirus
T2 sequence (Q62137 1-1100): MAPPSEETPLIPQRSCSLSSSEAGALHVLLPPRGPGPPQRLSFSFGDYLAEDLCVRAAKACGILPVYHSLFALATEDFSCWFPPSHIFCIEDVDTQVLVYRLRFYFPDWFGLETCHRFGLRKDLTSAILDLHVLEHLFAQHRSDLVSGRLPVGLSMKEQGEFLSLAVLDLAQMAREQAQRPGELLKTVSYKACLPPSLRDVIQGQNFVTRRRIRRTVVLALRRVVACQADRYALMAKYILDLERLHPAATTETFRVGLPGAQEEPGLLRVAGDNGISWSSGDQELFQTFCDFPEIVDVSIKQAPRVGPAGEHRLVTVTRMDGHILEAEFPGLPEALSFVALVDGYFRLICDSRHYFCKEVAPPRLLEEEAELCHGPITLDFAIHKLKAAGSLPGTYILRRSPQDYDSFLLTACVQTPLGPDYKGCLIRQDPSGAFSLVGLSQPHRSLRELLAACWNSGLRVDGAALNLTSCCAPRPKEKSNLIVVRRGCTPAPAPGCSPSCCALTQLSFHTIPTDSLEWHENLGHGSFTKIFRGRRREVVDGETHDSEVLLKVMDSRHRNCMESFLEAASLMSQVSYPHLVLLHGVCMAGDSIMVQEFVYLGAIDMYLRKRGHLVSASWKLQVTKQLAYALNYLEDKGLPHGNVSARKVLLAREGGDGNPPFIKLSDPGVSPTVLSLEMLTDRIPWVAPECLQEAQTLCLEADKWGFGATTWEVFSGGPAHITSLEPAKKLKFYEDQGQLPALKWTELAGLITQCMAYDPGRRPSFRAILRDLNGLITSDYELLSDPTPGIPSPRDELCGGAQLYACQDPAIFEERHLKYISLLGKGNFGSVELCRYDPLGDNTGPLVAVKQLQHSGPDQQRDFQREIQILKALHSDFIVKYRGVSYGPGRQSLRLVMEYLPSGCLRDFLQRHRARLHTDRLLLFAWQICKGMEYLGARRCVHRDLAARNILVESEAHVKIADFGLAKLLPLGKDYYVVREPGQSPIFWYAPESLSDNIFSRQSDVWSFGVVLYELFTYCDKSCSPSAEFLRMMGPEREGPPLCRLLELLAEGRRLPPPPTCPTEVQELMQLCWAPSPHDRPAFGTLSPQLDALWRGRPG
Method: as §1
KL-2 EBV-transformed human lymphoblastoid B cells (native JAK3 kinase assays) or insect ovary cells (recombinant JAK3 kinase assays) were lysed with NP-40 lysis buffer (50 mM Tris, pH 8, 150 mM NaCl, 5 mM EDTA, 1% NP-40, 100 μM sodium orthovanadate, 100 μM sodium molybdate, 8 μg/ml aprotinin, 5 μg/ml leupeptin, and 500 μM PMSF) and centrifuged 10 minutes at 13000×g to remove insoluble material. Samples were immunoprecipitated with antisera prepared against JAK3. The antisera were diluted and immune complexes collected by incubation with 15 μl protein A Sepharose. After 4 washes with NP-40 lysis buffer, the protein A Sepharose beads were washed once in kinase buffer (20 mM MOPS, pH 7.0, 10 mM MgCl2) and resuspended in the same buffer. Reactions were initiated by the addition of 25 μCi γ[^32P] ATP (5000 Ci/mMole) and unlabeled ATP to a final concentration of 5 μM. Reactions were terminated by boiling for 4 min in SDS sample buffer. Samples were run on 9.5% SDS polyacrylamide gels and labeled proteins will be detected by autoradiography. […] For each drug concentration, a kinase activity index (KA) was determined by comparing the kinase activity in phosphorimager units (PIU) to that of the baseline sample. […]

[1] = tested on: JAK3-dependent STAT activation; assay: EMSA, IL-2 triggered STAT activation in 32Dc11/IL2Rβ cells; assay type: cell-based
Method: (§2) Electrophoretic Mobility Shift Assays (EMSAs). EMSAs were performed to examine the effects of dimethoxyquinazoline compounds on cytokine-induced STAT activation (Goodman et. al., 1998). […] Cells were collected after 15 minutes and resuspended in lysis buffer (100 mM Tris-HCl pH 8.0, 0.5% NP-40, 10% glycerol, […], 0.1 mM NaVO3, 50 mM NaF, 150 mM NaCl, 1 mM DTT, 3 μg/ml Aprotinin, 2 μg/ml Pepstatin A, 1 μg/ml Leupeptin and 0.2 mM PMSF). Lysates were precleared by centrifugation for 30 min. Cell extracts (approximately 10 μg) were incubated with 2 μg of poly(dI-dC) for 30 minutes, followed by a 30 minutes incubation with 1ng of poly. nucleotide kinase-^32P labeled double stranded DNA oligonucleotide representing the IRF-1 STAT DNA binding sequence (Santa Cruz Biotechnology, Santa Cruz, Calif.). Samples were resolved by non-denaturing PAGE and visualized by autoradiography.

[2] = tested on: JAK1/JAK2-dependent STAT activation; assay: EMSA, IL-3 triggered STAT activation in 32Dc11/IL2Rβ cells; assay type: cell-based; conditions: 10 μg/ml
Method: as §2

RBL-2H3 mast cells = assay: IgE/antigen-induced degranulation and mediator release; assay type: cell-based, rat; conditions: 1 h preincubation, DNP-BSA challenge; at ≧30 μM
Excerpt: Vehicle treated control RBL-2H3 cells released 45.1±3.1% of their hexosaminidase contents after DNP-BSA challenge. […] Vehicle treated control cells released 11.3±1.3 pg LTC4, and 160±33.0 pg TNFα/10^6 mast cells. The results on LTC4 and TNFα release are expressed as percent of maximum control release from vehicle treated control mast cells. The data points represent the mean±SEM values obtained from 3-6 independent experiments. […] *P<0.05 and **P<0.0001 compared to control as determined by Student's t test.
Supernatants were removed and saved.

Sequence of recombinant JAK2 (O60674 whole entry): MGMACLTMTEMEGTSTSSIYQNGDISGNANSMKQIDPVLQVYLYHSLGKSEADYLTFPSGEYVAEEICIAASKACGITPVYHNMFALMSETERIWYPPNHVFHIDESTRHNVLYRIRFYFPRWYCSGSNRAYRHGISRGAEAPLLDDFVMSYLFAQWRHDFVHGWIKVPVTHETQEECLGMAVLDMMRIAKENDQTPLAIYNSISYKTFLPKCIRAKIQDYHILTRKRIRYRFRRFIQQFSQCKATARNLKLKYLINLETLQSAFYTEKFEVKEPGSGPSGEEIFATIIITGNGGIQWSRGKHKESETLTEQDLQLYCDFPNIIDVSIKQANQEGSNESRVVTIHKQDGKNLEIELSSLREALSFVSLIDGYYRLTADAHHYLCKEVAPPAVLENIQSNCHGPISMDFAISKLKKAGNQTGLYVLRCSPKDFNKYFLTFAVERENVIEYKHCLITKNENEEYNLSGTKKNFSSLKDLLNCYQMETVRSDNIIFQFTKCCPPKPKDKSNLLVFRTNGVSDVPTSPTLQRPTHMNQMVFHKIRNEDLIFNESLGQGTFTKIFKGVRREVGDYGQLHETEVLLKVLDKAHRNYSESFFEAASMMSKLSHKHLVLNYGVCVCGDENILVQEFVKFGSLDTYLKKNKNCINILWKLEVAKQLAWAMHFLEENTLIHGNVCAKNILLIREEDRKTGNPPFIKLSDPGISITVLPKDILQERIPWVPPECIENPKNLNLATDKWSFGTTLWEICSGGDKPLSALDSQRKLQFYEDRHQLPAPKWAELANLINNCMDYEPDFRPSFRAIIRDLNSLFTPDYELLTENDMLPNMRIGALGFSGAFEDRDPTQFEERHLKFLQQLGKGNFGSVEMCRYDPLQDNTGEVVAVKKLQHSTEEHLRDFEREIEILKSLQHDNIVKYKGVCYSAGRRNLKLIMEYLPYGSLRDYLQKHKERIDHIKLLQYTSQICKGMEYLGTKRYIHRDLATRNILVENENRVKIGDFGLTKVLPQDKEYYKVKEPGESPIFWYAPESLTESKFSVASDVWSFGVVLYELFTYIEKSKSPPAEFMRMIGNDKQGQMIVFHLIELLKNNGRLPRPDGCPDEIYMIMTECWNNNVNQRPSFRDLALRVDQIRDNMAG
T1 sequence (P23458 whole entry): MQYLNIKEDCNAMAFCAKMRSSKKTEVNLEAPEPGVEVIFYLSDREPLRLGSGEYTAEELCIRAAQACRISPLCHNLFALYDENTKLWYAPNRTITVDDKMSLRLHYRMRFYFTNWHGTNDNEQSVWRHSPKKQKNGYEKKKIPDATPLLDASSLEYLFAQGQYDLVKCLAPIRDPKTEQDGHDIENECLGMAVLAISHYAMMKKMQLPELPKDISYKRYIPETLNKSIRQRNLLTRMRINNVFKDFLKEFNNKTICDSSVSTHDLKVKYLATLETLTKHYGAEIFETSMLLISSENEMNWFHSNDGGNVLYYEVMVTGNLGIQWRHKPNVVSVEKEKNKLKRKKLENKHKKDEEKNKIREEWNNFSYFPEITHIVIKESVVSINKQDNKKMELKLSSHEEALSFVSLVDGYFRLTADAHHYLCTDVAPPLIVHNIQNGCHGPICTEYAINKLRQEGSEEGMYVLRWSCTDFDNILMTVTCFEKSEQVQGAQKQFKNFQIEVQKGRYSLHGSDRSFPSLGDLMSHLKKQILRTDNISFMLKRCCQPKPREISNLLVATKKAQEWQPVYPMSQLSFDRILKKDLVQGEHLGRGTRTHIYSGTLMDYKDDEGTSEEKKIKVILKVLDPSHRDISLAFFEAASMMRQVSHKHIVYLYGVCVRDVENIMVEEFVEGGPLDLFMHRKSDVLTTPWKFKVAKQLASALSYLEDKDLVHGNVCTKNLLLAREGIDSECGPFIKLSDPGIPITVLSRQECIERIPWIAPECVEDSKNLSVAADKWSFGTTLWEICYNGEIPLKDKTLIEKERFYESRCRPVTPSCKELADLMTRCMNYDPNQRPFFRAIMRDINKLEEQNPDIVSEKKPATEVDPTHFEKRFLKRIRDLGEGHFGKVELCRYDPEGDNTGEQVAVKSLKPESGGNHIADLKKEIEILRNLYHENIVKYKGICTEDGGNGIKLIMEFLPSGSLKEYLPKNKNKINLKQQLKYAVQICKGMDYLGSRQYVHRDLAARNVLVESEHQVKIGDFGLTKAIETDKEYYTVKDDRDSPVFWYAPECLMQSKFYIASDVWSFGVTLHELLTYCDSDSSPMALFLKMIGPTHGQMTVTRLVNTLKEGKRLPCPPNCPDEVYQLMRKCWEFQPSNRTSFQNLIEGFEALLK

## COc1cc2ncnc(Nc3ccc(O)c(Br)c3)c2cc1OC [WHI-P154, 4-(3′-Bromo-4′-hydroxylphenyl)-amino-6,7-dimethoxyquinazoline]
Recombinant JAK2
  inhibitory activity against recombinant JAK2: did not exhibit any detectable inhibitory activity
Recombinant JAK1
  inhibitory activity against recombinant JAK1: did not exhibit any detectable inhibitory activity
Recombinant murine JAK3
  IC50: 48.1 µg/mL
Recombinant murine JAK3; molar value in brackets, read-out: IC50
  IC50: ~128 µM
[1]; 10 μg/ml, 32Dc11/IL2Rβ cells
  JAK3-dependent STAT activation after stimulation with IL-2: inhibited
[1]; 100 μg/ml in FIG. 6E legend
  IL-2 triggered JAK-3-dependent STAT activation: inhibited
[2]
  JAK1/JAK2-dependent STAT activation after stimulation with IL-3: did not affect
RBL-2H3 mast cells
  LTC4 release: near to complete inhibition
  TNFα release: near to complete inhibition
  β-hexosaminidase release (degranulation): near to complete inhibition
